Source: US20250177359A1, “COMPOUNDS FOR USE IN THE TREATMENT OF CANCER AND INFLAMMATORY CONDITIONS” (priority 2022, published 2025)
pIC50: −log10 of the molar value. Read-outs that look alike come from different tables or passages of the source.

Target: T1, TNKS2 (Homo sapiens, UniProt Q9H2K2)
T1 sequence (Q9H2K2 1-1166): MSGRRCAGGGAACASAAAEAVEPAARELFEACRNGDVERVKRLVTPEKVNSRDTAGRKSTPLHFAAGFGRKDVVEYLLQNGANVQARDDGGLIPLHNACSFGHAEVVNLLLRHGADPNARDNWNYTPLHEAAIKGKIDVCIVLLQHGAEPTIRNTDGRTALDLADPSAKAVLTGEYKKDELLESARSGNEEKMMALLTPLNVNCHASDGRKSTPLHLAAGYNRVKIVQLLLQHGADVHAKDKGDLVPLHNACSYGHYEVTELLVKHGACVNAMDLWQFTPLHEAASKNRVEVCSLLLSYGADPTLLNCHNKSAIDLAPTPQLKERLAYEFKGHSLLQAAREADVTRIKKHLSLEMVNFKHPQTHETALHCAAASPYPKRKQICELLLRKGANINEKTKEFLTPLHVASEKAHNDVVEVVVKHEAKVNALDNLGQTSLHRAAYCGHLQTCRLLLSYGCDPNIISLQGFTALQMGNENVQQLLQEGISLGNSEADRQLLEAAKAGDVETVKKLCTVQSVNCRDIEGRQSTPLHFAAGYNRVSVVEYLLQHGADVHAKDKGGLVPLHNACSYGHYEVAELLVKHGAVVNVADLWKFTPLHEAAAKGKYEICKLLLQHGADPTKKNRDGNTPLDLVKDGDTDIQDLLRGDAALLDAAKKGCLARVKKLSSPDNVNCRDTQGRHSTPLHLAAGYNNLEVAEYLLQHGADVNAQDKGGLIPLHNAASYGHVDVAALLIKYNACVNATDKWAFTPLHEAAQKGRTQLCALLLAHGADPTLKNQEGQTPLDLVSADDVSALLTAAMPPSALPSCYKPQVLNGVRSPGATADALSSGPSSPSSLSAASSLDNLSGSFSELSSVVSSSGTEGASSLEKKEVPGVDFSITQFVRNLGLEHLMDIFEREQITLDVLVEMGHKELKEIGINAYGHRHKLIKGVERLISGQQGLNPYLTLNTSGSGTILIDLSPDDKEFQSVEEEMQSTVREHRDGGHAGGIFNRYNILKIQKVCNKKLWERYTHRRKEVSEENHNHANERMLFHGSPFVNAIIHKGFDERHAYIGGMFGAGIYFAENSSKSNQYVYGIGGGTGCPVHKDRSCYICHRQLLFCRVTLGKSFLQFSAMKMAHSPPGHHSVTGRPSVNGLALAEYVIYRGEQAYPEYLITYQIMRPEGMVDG
Experiment: biochemical
Protocol: All starting materials, reagents, and solvents were purchased from common commercial suppliers and were used as such without further purification. […] Organic solutions were dried over anhydrous Na2SO4 and concentrated with rotary evaporator at low pressure. All the reactions were routinely checked by thin-layer chromatography (TLC) on silica gel 60F254 (Merck) and visualized by using UV and iodine. Flash chromatography separations were carried out on Merck silica gel 60 (mesh 230-400) or by using automated Buchi Reveleris X2-UV with column FP Ecoflex Si 12 g. Yields were of purified products and were not optimized. ^1HNMR spectra were recorded at 400 MHz (Bruker Avance DRX-400), while ^13CNMR spectra were recorded at 101 MHz (Bruker Avance DRX-400). Chemical shifts are given in ppm (δ) relative to TMS. […] Mating constant (J) are reported in Hz. The purity of the tested compounds was evaluated by HPLC analysis using Jasco LC-4000 instrument equipped with a UV-Visible Diode Array Jasco-MD4015 (Jasco Corporation, Tokyo, Japan), and XTerra MS C18 column, 5 μm×4.6 mm×150 mm (Waters Corporation, Massachusetts, USA). Chromatograms were analyzed by ChromNAV2.0 Chromatography Data System software. […] The peak retention time (ret. time) is given in minutes. […] 1-Isobutoxy-4-methoxy-2-nitrobenzene (113). Isobutyl alcohol (0.6 mL, 6.43 mmol) was added, under nitrogen atmosphere at 0° C., to a suspension of NaH (0.26 g, 6.43 mmol) in dry DMF. After 15 minutes, 1-fluoro-4-methoxy-2-nitrobenzene 112 (1 g, 5.84 mmol) was also added and the reaction mixture was stirred at 80° C. for 4 h. […] (2-Isobutoxy-5-methoxyphenyl)amine (114). Zn (1.57 g, 24 mmol) and NH4C1 (2.45 g, 40 mmol) were added to a solution of 113 (0.46 g, 2 mmol) in acetone/H2O (50 mL, ratio 5:1). The reaction mixture was stirred at 60° C. for 3 h and, then, it was filtered over celite. […] N-(2,5-diethoxyphenyl)thiourea (55). […] N-(2-isobutoxy-5-methoxyphenyl)thiourea (115). […] A solution of Br2 (0.2 mL, 3.3 mmol) in CHCl3 (5 mL) was slowly added to a suspension of 45 (0.6 g, 3.3 mmol) in CHCl3 (13 mL), at 0° C. The reaction mixture was stirred at r.t. for 4 h and, then, a 10% solution of Na2SO3 in water was added to the mixture. […] 4,7-Diethoxy-1,3-benzothiazol-2-amine (66). […] 4-Isobutoxy-7-methoxy-1,3-benzothiazol-2-amine (116). […] Hydrazine hydrate (0.23 mL, 4.77 mmol) and CH3COOH (0.12 mL, 2.1 mmol) were added to a suspension of 56 (0.29 g, 1.59 mmol) in ethylene glycol (8 mL), and the reaction mixture was stirred for 24 h at 125° C. […] 6-Ethyl-2-hydrazino-1,3-benzothiazole (69). […] 6-Ispropyl-2-hydrazino-1,3-benzothiazole (70). […] 2-Hydrazino-4,7-dimethoxy-1,3-benzothiazole (73). […] 2-Hydrazino-5,7-dimethoxy-1,3-benzothiazole (75). […] 2-Hydrazino-4,7-Diethoxy-1,3-benzothiazole (77). […] 2-Hydrazino-5-methyl[1,3]thiazolo[5,4-b]pyridine (100). […] A solution of 67 (0.13 g, 0.65 mmol) in formic acid (5 mL) was refluxed for 10 h. The reaction mixture was then poured into ice/water and the pH was neutralized using a saturated solution of NaHCO3.

[1] = read-out: TNKS2 IC50, NAD+ consumption assay, > less than 50% inhibition at highest concentration, >> no inhibition

Row | Structure (SMILES) | pIC50 [1] | also measured
1 | Cc1ccc2c(c1)sc1nnc(N)n12 [Compound 22, 7-Methyl[1,2,4]triazolo[3,4-b][1,3]benzothiazol-3-amine] | 5.24 | 
2 | COc1ccc(OC)c2c1sc1nnc(N)n12 [Compound 28, 5,8-Dimethoxy[1,2,4]triazolo[3,4-b][1,3]benzothiazol-3-amine] | 5.00 | 
3 | Nc1nnc2sc3cc(O)ccc3n12 [Compound 109, 3-Amino[1,2,4]triazolo[3,4-b][1,3]benzothiazol-7-ol] |  | pIC50: ~6.70
4 | Oc1ccc2c(c1)sc1nncn12 [Compound 10] |  | pIC50 (read-out: TNKS2 IC50, NAD+ consumption assay): 6.43
